Molecular target: human VPS34 (Homo sapiens (Human), UniProt Q8NEB9)
Assay: Human VPS34 enzyme assay (Adapta TR-FRET ADP detection)
Format: biochemical
Design: Percent Inhibition: dose or concentration left out as unconfirmed
Details: not given

human VPS34, sequence (Q8NEB9 whole entry): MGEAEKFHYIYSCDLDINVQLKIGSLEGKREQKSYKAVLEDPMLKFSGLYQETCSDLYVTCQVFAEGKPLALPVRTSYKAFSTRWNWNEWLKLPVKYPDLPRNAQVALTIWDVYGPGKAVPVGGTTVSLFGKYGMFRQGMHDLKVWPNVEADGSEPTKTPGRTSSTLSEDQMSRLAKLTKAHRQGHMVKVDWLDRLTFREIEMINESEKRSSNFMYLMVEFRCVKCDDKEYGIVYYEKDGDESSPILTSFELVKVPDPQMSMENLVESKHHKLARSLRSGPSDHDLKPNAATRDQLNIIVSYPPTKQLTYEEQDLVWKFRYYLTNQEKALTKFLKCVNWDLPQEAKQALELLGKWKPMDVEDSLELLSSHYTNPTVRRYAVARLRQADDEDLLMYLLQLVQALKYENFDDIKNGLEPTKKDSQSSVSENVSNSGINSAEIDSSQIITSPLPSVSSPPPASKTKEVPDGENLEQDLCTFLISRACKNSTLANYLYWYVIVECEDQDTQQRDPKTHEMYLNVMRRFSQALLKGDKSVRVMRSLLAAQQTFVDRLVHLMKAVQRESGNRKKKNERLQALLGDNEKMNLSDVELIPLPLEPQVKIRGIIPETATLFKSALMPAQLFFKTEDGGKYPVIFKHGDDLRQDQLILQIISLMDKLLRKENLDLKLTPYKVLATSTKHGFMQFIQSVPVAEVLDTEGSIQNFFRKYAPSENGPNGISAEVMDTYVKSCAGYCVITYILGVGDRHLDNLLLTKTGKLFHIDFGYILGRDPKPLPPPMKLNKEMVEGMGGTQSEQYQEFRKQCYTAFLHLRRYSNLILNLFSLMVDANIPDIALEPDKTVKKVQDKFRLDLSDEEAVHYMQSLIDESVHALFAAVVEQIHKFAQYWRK

| Percent Inhibition | Structure (SMILES) |
| --- | --- |
| 94% | Cc1ncc(-c2ccnc(NC(=O)C3CC3(F)F)c2)cc1NS(=O)(=O)c1ccc(F)cc1F (single isomer, unassigned) [Compound I-267b, N-(5-{[(2,4-difluorophenyl)sulfonyl]amino}-6-methyl-3,4′-bipyridin-2′-yl)-2,2-difluorocyclopropanecarboxamide] |
| 83% | Cc1ncc(-c2ccnc(NC(=O)C3CC3(F)F)c2)cc1NS(=O)(=O)N(C)C (single isomer, unassigned) [Compound I-498] |
| >99% | Cc1ncc(-c2ccnc(NC(=O)C3CC3(F)F)c2)cc1NS(=O)(=O)N(C)C (single isomer, unassigned) [Compound I-499] |
| >99% | CNc1ncc(-c2ccnc(NC(C)=O)c2)cc1NS(=O)(=O)c1ccc(F)cc1F [Compound I-31, N-[5-{[(2,4-difluorophenyl)sulfonyl]amino}-6-(methylamino)-3,4′-bipyridin-2′-yl)acetamide] |

Same assay, conditions: IC50 range class

| IC50 | Structure (SMILES) |
| --- | --- |
| < 10 nM | Cc1ncc(-c2ccnc(NC(=O)C3CC3(F)F)c2)cc1NS(=O)(=O)c1ccc(F)cc1F (racemic) [Compound I-16, (rac)-N-(5-{[(2,4-difluorophenyl)sulfonyl]amino}-6-methyl-3,4′-bipyridin-2′-yl)-2,2-difluorocyclopropanecarboxamide] |
| 10 to 50 nM | Cc1ncc(-c2ccnc(NC(=O)C3CC3(F)F)c2)cc1NS(=O)(=O)c1ccc(F)cc1F (single isomer, unassigned) [Compound I-267a, N-(5-{[(2,4-difluorophenyl)sulfonyl]amino}-6-methyl-3,4′-bipyridin-2′-yl)-2,2-difluorocyclopropanecarboxamide] |
| 10 to 50 nM | Cc1ncc(-c2ccnc(NC(=O)C3CC3(F)F)c2)cc1NS(=O)(=O)c1ccc(F)cc1F (single isomer, unassigned) [Compound I-267b, N-(5-{[(2,4-difluorophenyl)sulfonyl]amino}-6-methyl-3,4′-bipyridin-2′-yl)-2,2-difluorocyclopropanecarboxamide] |
| 10 to 50 nM | CC(=O)Nc1cc(-c2cnc(C)c(N3CC(N(C)C)CS3(=O)=O)c2)ccn1 (single isomer, unassigned) [Compound I-496, N-(5-(4-(dimethylamino)-1,1-dioxidoisothiazolidin-2-yl)-6-methyl-[3,4′-bipyridin]-2′-yl)acetamide] |
| 10 to 50 nM | Cc1ncc(-c2ccnc(NC(=O)C3CC3(F)F)c2)cc1NS(=O)(=O)N(C)C (single isomer, unassigned) [Compound I-498] |
| 10 to 50 nM | Cc1ncc(-c2ccnc(NC(=O)C3CC3(F)F)c2)cc1NS(=O)(=O)N(C)C (single isomer, unassigned) [Compound I-499] |
| > 100 nM | CC(=O)Nc1cc(-c2cnc(Cl)c(S(=O)(=O)NC(CO)c3ccccc3)c2)ccn1 (stereo in doubt) [Compound I-403, N-(6-chloro-5-{[(1R)-2-hydroxy-1-phenylethyl]sulfamoyl}-3,4′-bipyridin-2′-yl)acetamide] |
| < 10 nM | CC(=O)Nc1cc(-c2cnc(C)c(NS(=O)(=O)c3ccc(C(F)(F)F)nc3)c2)ccn1 [Compound I-1] |
| 10 to 50 nM | CC(=O)Nc1cc(-c2cnc3cnn(S(=O)(=O)C4CC4)c3c2)ccn1 [Compound I-2, N-{4-[1-(cyclopropylsulfonyl)-1H-pyrazolo[4,3-b]pyridin-6-yl]pyridin-2-yl}acetamide] |
| 50 to 100 nM | CC(=O)Nc1cc(-c2cnc(N)c(S(=O)(=O)Cc3ccc4ccccc4c3)c2)ccn1 [Compound I-3, N-{6-amino-5-[(2-naphthylmethyl)sulfonyl]-3,4′-bipyridin-2′-yl}acetamide] |
| 10 to 50 nM | Cc1cnc(NC(=O)C2CC2)cc1-c1cnc(C)c(NS(=O)(=O)c2ccc(F)cc2F)c1 [Compound I-4, N-(5-{[(2,4-difluorophenyl)sulfonyl]amino}-5′,6-dimethyl-3,4′-bipyridin-2′-yl)cyclopropanecarboxamide] |
| 10 to 50 nM | CC(=O)Nc1cc(-c2cnc(N)c(S(=O)(=O)Cc3ccccc3)c2)ccn1 [Compound I-6, N-[6-amino-5-(benzylsulfonyl)-3,4′-bipyridin-2′-yl]acetamide] |
| > 100 nM | CC(=O)Nc1cc(-c2cncc(C(=O)C3CC3)c2)ccn1 [Compound I-8, N-[5-(cyclopropylcarbonyl)-3,4′-bipyridin-2′-yl]acetamide] |
| 10 to 50 nM | CC(=O)Nc1cc(-c2cncc(S(=O)(=O)N3CCC(F)(F)CC3)c2)ccn1 [Compound I-9, N-{5-[(4,4-difluoropiperidin-1-yl)sulfonyl]-3,4′-bipyridin-2′-yl}acetamide] |
| < 10 nM | CC(=O)Nc1cc(-c2cnc(N)c(C(=O)N3CCCCC3)c2)ccn1 [Compound I-10, N-[6-amino-5-(piperidin-1-ylcarbonyl)-3,4′-bipyridin-2′-yl]acetamide] |
| < 10 nM | CC(=O)Nc1cc(-c2cnc(N)c(S(=O)(=O)NC34CC(C3)C4)c2)ccn1 [Compound I-11, N-[6-amino-5-(bicyclo[1.1.1]pent-1-ylsulfamoyl)-3,4′-bipyridin-2′-yl]acetamide] |
| < 10 nM | CC(=O)Nc1cc(-c2cncc(NS(=O)(=O)c3ccc(F)cc3F)c2)ccn1 [Compound I-12, N-(5-{[(2,4-difluorophenyl)sulfonyl]amino}-3,4′-bipyridin-2′-yl)acetamide] |
| > 100 nM | CC(=O)Nc1cc(-c2cncc(NC(=O)c3ccccc3)c2)ccn1 [Compound I-13, N-(2′-acetamido-3,4′-bipyridin-5-yl)benzamide] |
| 10 to 50 nM | CC(=O)Nc1cc(-c2cnc(N)c(C(=O)NCC3CC3)c2)ccn1 [Compound I-14, 2′-acetamido-6-amino-N-(cyclopropylmethyl)-3,4′-bipyridine-5-carboxamide] |
| 10 to 50 nM | CC(=O)Nc1cc(-c2cnc(N)c(C(=O)N3CCCC3)c2)ccn1 [Compound I-15, N-[6-amino-5-(pyrrolidin-1-ylcarbonyl)-3,4′-bipyridin-2′-yl]acetamide] |
| 50 to 100 nM | CC(=O)Nc1cc(-c2cnc3cc[nH]c3c2)ccn1 [Compound I-17, N-[4-(1H-pyrrolo[3,2-b]pyridin-6-yl)pyridin-2-yl]acetamide] |

| IC50 | Structure (SMILES) |
| --- | --- |
| < 10 nM | CC(=O)Nc1cc(-c2cnc(C)c(NS(=O)(=O)c3cn(C)nc3C(F)(F)F)c2)ccn1 [Compound I-18, N-[6-methyl-5-({[1-methyl-3-(trifluoromethyl)-1H-pyrazol-4-yl]sulfonyl}amino)-3,4′-bipyridin-2′-yl]acetamide] |
| 50 to 100 nM | CC(=O)Nc1cc(-c2cncc(N(C)S(C)(=O)=O)c2)ccn1 [Compound I-20, N-{5-[methyl(methylsulfonyl)amino]-3,4′-bipyridin-2′-yl}acetamide] |
| 10 to 50 nM | CC(=O)Nc1cc(-c2cnc3c(c2)S(=O)(=O)N(C)CN3)ccn1 [Compound I-21, N-[4-(2-methyl-1,1-dioxido-3,4-dihydro-2H-pyrido[2,3-e][1,2,4]thiadiazin-7-yl)pyridin-2-yl]acetamide] |
| 10 to 50 nM | CNc1ncc(-c2ccnc(NC(C)=O)c2)cc1C(=O)N(C)C [Compound I-22, 2′-acetamido-N,N-dimethyl-6-(methylamino)-3,4′-bipyridine-5-carboxamide] |
| < 10 nM | CC(=O)Nc1cc(-c2cnc3ccn(S(=O)(=O)c4ccccc4)c3c2)ccn1 [Compound I-23, N-{4-[1-(phenylsulfonyl)-1H-pyrrolo[3,2-b]pyridin-6-yl]pyridin-2-yl}acetamide] |
| < 10 nM | CC(=O)Nc1cc(-c2cnc(N)c(S(=O)(=O)N3CCOCC3)c2)ccn1 [Compound I-24, N-[6-amino-5-(morpholin-4-ylsulfonyl)-3,4′-bipyridin-2′-yl]acetamide] |
| 10 to 50 nM | CC(=O)Nc1cc(-c2cnc(N(C)C)c(NS(=O)(=O)c3ccc(F)cc3F)c2)ccn1 [Compound I-25, N-[5-{[(2,4-difluorophenyl)sulfonyl]amino}-6-(dimethylamino)-3,4′-bipyridin-2′-yl]acetamide] |
| 50 to 100 nM | CCN(c1cc(-c2ccnc(NC(C)=O)c2)cnc1C)S(=O)(=O)C1CC1 [Compound I-26, N-{5-[(cyclopropylsulfonyl)(ethyl)amino]-6-methyl-3,4′-bipyridin-2′-yl}acetamide] |
| < 10 nM | CCN(CC)C(=O)c1cc(-c2ccnc(NC(C)=O)c2)cnc1N [Compound I-27, 2′-acetamido-6-amino-N,N-diethyl-3,4′-bipyridine-5-carboxamide] |
| < 10 nM | CC(=O)Nc1cc(-c2cnc(C)c(NS(=O)(=O)c3cc(C)ccc3F)c2)ccn1 [Compound I-28, N-(5-{[(2-fluoro-5-methylphenyl)sulfonyl]amino}-6-methyl-3,4′-bipyridin-2′-yl)acetamide] |
| 10 to 50 nM | CC(=O)Nc1cc(-c2cnc3c(c2)N(CC2CC2)S(=O)(=O)N3)ccn1 [Compound I-29, N-{4-[1-(cyclopropylmethyl)-2,2-dioxido-1,3-dihydro[1,2,5]thiadiazolo[3,4-b]pyridin-6-yl]pyridin-2-yl}acetamide] |
| < 10 nM | CC(=O)Nc1cc(-c2cnc(C)c(NS(=O)(=O)c3ccc(Cl)cc3Cl)c2)ccn1 [Compound I-30, N-(5-{[(2,4-dichlorophenyl)sulfonyl]amino}-6-methyl-3,4′-bipyridin-2′-yl)acetamide] |
| 10 to 50 nM | CNc1ncc(-c2ccnc(NC(C)=O)c2)cc1NS(=O)(=O)c1ccc(F)cc1F [Compound I-31, N-[5-{[(2,4-difluorophenyl)sulfonyl]amino}-6-(methylamino)-3,4′-bipyridin-2′-yl)acetamide] |
| 10 to 50 nM | CC(=O)Nc1cc(-c2cnc3ccn(S(C)(=O)=O)c3c2)ccn1 [Compound I-33, N-{4-[1-(methylsulfonyl)-1H-pyrrolo[3,2-b]pyridin-6-yl]pyridin-2-yl}acetamide] |
| < 10 nM | COC(=O)Nc1cc(-c2cnc(N)c(S(=O)(=O)C(C)C)c2)ccn1 [Compound I-34, methyl [6-amino-5-(isopropylsulfonyl)-3,4′-bipyridin-2′-yl]carbamate] |
| 10 to 50 nM | CC(=O)Nc1cc(-c2cnc(N)c(NCC3CC3)c2)ccn1 [Compound I-35, N-{6-amino-5-[(cyclopropylmethyl)amino]-3,4′-bipyridin-2′-yl}acetamide] |
| < 10 nM | COC(=O)Nc1cc(-c2cnc(N)c(S(=O)(=O)N3CCCC3)c2)ccn1 [Compound I-36, methyl [6-amino-5-(pyrrolidin-1-ylsulfonyl)-3,4′-bipyridin-2′-yl]carbamate] |
| < 10 nM | CC(=O)Nc1cc(-c2cnc(N)c(S(=O)(=O)N(C)c3ccccc3)c2)ccn1 [Compound I-37, N-{6-amino-5-[methyl(phenyl)sulfamoyl]-3,4′-bipyridin-2′-yl}acetamide] |
| 10 to 50 nM | COC(=O)Nc1cc(-c2cnc3[nH]ncc3c2)ccn1 [Compound I-38, Methyl [4-(1H-pyrazolo[3,4-b]pyridin-5-yl)pyridin-2-yl]carbamate] |
| < 10 nM | COc1ncc(-c2ccnc(NC(C)=O)c2)cc1S(=O)(=O)Nc1ccccc1 [Compound I-39, N-[6-methoxy-5-(phenylsulfamoyl)-3,4′-bipyridin-2′-yl]acetamide] |
| < 10 nM | CC(=O)Nc1cc(-c2cnc3[nH]cc(S(=O)(=O)N(C)C)c3c2)ccn1 [Compound I-40, N-{4-[3-(dimethylsulfamoyl)-1H-pyrrolo[2,3-b]pyridin-5-yl]pyridin-2-yl}acetamide] |
